For orientation: IC50 means the point on the concentration scale where inhibition reaches its midpoint. Low readings indicate higher potency, high ones lower potency.

Data set [1] relates to human non-small cell lung A549.
The test system of data set [2] is axolotl (Ambystoma mexicanum) embryo tail regeneration.
Data set [3] in a line: cancer cell line cytotoxicity assay. The following applies: human, A549 cells (non-small cell lung cancer cell line).
The next data set addresses Hsp90α (Homo sapiens, UniProt P07900). The experiment in a line: standard Hsp90α inhibition. The data set is classed as binding.
The conditions of data set [4]: second generation clinical analogue; cited from earlier work.
The conditions of data set [5]: second generation clinical analogue; cited from earlier work. This is another data set of the same source.

Structures can show the parent of a compound that is named as a salt. Where only a bound is given, the exact number is not on record here.

In data set [1], 17-O-demethyl-reblastatin had an IC50 greater than 50000 nM.
As to `COC1=C2C[C@@H](C)C[C@H](OC)[C@H](O)[C@@H](C)/C=C(\C)[C@H](OC(N)=O)[C@@H](OC)/C=C\C=C(/C)C(=O)NC(=CC1=O)C2=O` [Gdm, Geldanamycin], in data set [2] (10 μM, axolotl embryos), the “dose-response: observation at the highest dose” value is “developmental abnormalities and toxicity”. In addition, the “axolotls dead at day 7” value in data set [2] (axolotl (Ambystoma mexicanum), in vivo, 7 day) came out at 3. Moreover, the midpoint of inhibition in data set [3], the IC50, lay at 1 nM.
For `COc1c(O)cc2cc1C[C@@H](C)C[C@H](OC)[C@H](O)[C@@H](C)/C=C(\C)[C@H](OC(N)=O)[C@@H](OC)CC/C=C(\C)C(=O)N2` [reblastatin], the values for the IC50 (at Hsp90α; in data set [3]) were 5 to 30 nM and 700 nM, respectively.
For `C=CCNc1c(O)cc2c(O)c1C[C@@H](C)C[C@H](OC)[C@H](O)[C@@H](C)/C=C(\C)[C@H](OC(N)=O)[C@@H](OC)/C=C\C=C(/C)C(=O)N2` [retaspimycin hydrochloride/IPI-504, retaspimycin hydrochloride], in data set [4], the “hepatotoxicity relative to first generation analogues” value is recorded as “reduced hepatotoxicity”. The “solubility relative to first generation analogues” value in data set [5] is listed as “improved solubility”.

The values above are taken from paper PMC5339036 (Angewandte Chemie (International ed. in English), 2017).
